Assay results as given in paper PMC8154578, “Sustainable Drug Discovery of Multi-Target-Directed Ligands for Alzheimer’s Disease” (Journal of Medicinal Chemistry, 2021).

Tests used:
[1] = system: TNF-α, IL-1β, iNOS and COX-2 mRNA in LPS-induced BV-2 cells; assay: Expression of proinflammatory cytokines and enzymes in LPS-induced BV-2 cells (real-time PCR); format: cell-based, murine; conditions: 0.1 μM for 24 h, then 100 ng/mL LPS for 24 h, compared to LPS
[2] = system: RAW264.7 murine macrophage cell line; parameters: method as in PMID 29890972; conditions: 50 μM; cited from earlier work
[3] = system: IL-1β release in LPS-activated BV-2 cells; assay: Secretion of IL-1β in activated BV-2 cells (ELISA); format: cell-based, murine; conditions: 0.1 μM for 24 h, then 100 ng/mL LPS for 24 h, compared to LPS-treated cells

SMILES | COX-2 mRNA expression [1] | IL-1β mRNA expression [1] | TNF-α mRNA expression [1] | iNOS mRNA expression [1] | expression of TNF-α, iNOS, COX-2, NF-κB, IL-1β, and IL-6 [2] | release of IL-1β in the culture medium [3]
CCCCCCCCCCCCCCCc1cccc(O)c1C(=O)O [Compound 1a, reference compound] | reduced | reduced | reduced only the expression of IL-1β and COX-2 | reduced only the expression of IL-1β and COX-2 | significantly reduce | –
COC(=O)c1c(CCCCCCCCNc2c3c(nc4ccccc24)CCCC3)cccc1OC [Compound 5, Methyl 2-Methoxy-6-(8-((1,2,3,4-tetrahydroacridin-9-yl)amino)octyl)benzoate] | significantly downregulated | significantly downregulated | not TNF-α | significantly downregulated | – | significantly decrease
COC(=O)c1c(CCCCCCCCNc2c3c(nc4cc(Cl)ccc24)CCCC3)cccc1OC [Compound 6, Methyl 2-(8-((6-Chloro-1,2,3,4-tetrahydroacridin-9-yl)amino)octyl)-6-methoxybenzoate] | significantly reduce | significantly reduce | significantly reduce | significantly reduce | – | significantly decrease
